Here are results for 3 compounds from patent US20110039779A1, “IGF-1R BINDING PROTEINS AND ANTAGONISTS” (priority 2007, published 2011).

One assay concerns the target T1, HIGF-1R (Homo sapiens, UniProt P08069).
T1 construct: HIGF-1R was purified from a cell culture of BHK cells stably transfected with IGF-1R cDNA; made in house; host or cells: BHK cells stably transfected with IGF-1R cDNA
The assay can be described thus: IGF-1R affinity, scintillation proximity assay (SPA assay), 125I-IGF1 displacement. It counts as binding. From the text: In certain cases, a scintillation proximity assay (SPA assay) was used to determine IGF-1R affinity.

A further assay concerns IGF-IR. The assay can be described thus: downstream signaling in L6 cells: IGF-IR. It is filed as cell-based. The settings on record: 3 nM IGF-1, read-out: IGF-IR, IC50 for down regulation of the stimulation to the basal level. How it is done:
(§1) The tyrosine phosphorylation of IRS signaling (the 180 kDa band on a tyrosine phosphor Western blot) as well as activation of effectors MAPK 44 and 42 and PKB were analyzed by using antibodies specific for their active forms using methods substantially similar to those described in Example 14 of the '246 PCT application.
(§2) The effect of select peptides on downstream signaling (MAPK44, MAPK42, PKB/Akt, IRS-1, and IGF-1R) was also measured by studying the signaling in L6 cells predominantly expressing IGF-1R and very limited insulin receptors. […] The antagonistic effect of the peptides can be seen to affect all the downstream signaling from the IGF-1R.

The next assay relates to PKB/Akt. The experiment in a line: downstream signaling in L6 cells: PKB/Akt. It counts as cell-based. As to conditions: 3 nM IGF-1, read-out: PKB/Akt, IC50 for down regulation of the stimulation to the basal level. How it is done:
as §1, §2

The test system of another assay is MAPK44. The experiment in a line: downstream signaling in L6 cells: MAPK44. The settings on record: 3 nM IGF-1, read-out: MAPK44, IC50 for down regulation of the stimulation to the basal level. It is filed as cell-based. As to the method:
as §1, §2

Assay [1] relates to MiaPaCa cells. The assay can be described thus: MiaPaCa tumor growth inhibition in nude mice. It is filed as in vivo. As to the method: Nude mice were inoculated with MiaPaCa cells (one million cells in matrigel) on the flank and followed until tumors reached a volume of greater than 100 mm^3. […] Animals were injected by the subcutaneous route 4 times per week for 3 weeks and followed for an additional 2 weeks without injections. Tumors were measured twice weekly. Animals were sacrificed and the tumors excised, weighed and photographed.

The next assay has as its target MCF7 cells (Homo sapiens, UniProt P08069). The experiment in a line: antagonism assay in starved MCF7 cells, luminescence viability, 72 hrs. It counts as cell-based. The settings on record: Table 9. As to the method:
Additional binding and antagonism assays using candidate peptides were performed. […] Cell viability was determined by luminescence assay and IC50 was calculated using standard techniques.

In a further assay the test system is SW480 cells. It is filed as cell-based. The settings on record: for IC50: read-out: IC50, inhibition of IGF-1 (10 nM)-induced proliferation of SW480 cells. How it is done: For cell growth/density studies, a mitochondrial activity assay was used, as exemplified by the following. Cells (SW480, MCF-7S8) were propagated in complete medium (DME: F12, 10% FCS (SW 480) or 5% FCS (MCF-7S8, P/S)), trypsinized, and seeded in 96 well plates as 10,000 cells/well in medium with 0.5% FCS. All wells in the periphery were omitted and only filled with medium. […] All treatments are made in triplicates. […] Treatment was continued for 48 hours (SW480 cells) or 72 hours (MCF-7S8 cells) before quantification of the cell density. Media was exchanged each day. Media and peptides were diluted in DMSO. When measuring cell density, the volume of each well was adjusted to […] Pre-diluted WST-1 (1 ml+1.5 ml DME:F12) was added as 25 μL to each well including background samples. Three wells with media only served as background controls. The cells were incubated for 90 min protected against light in an incubator.

A further assay concerns MAPK42. The assay can be described thus: downstream signaling in L6 cells: MAPK42. It is filed as cell-based. The settings on record: 3 nM IGF-1, read-out: MAPK42, IC50 for down regulation of the stimulation to the basal level. How it is done: as §1, §2
Assay [2] concerns MiaPaCa cells. The experiment in a line: gene expression changes in MiaPaCa cells (gene arrays). It counts as cell-based, human. As to conditions: IGF-1 (25 ng/ml) +/− ANT-429, 24 hours.
For another assay, the system named is IRS-1. The experiment in a line: downstream signaling: IRS-1 tyrosine phosphorylation. It counts as cell-based. As to conditions: for IC50: L6 cells, 3 nM IGF-1, read-out: IRS-1, IC50 for down regulation of the stimulation to the basal level. How it is done:
as §1, §2

Another assay deals with insulin receptor/IGF-1R. The assay can be described thus: tyrosine phosphorylation of insulin receptor/IGF-1R in L6-hIR cells (Western blot). It is filed as cell-based.
Assay [3] deals with SGBS adipocytes transfected with HIR-encoding DNA. The experiment in a line: 3H glucose incorporation (insulin agonist activity) in SGBS adipocytes. It counts as cell-based. As to the method:
Insulin increases uptake of ^3H glucose into adipocytes and its conversion into lipid. Incorporation of ^3H into the lipid phase was determined by partitioning of lipid phase into a scintillant mixture, which excludes water-soluble ^3H products. […] The results are expressed as increase relative to full insulin response.

Assay [4] concerns the target human insulin receptor (HIR) (Homo sapiens, UniProt P06213). The assay can be described thus: human insulin receptor (HIR) affinity. It is filed as binding. As to conditions: printed in brackets under the HIR affinity, not explained. How it is done: IGF-1R affinity studies were generally performed as follows. […] HIGF-1R was purified from a cell culture of BHK cells stably transfected with IGF-1R cDNA. The day before harvest cells were moved to serum free conditions and before harvest the cells were rinsed with and ice cold PBS solution. The cells were solubilized in cold lysis buffer (4 ml lysis buffer/1×10^8 cells); vortexed vigorously to lysis in lysis buffer (50 mM Hepes (pH 8.0); 150 mM NaCl; 1% Triton X-100; 2 mM EDTA; 10 μg/mlaprotinin; 0.5 mM PEFABLOC (Roche)); and the lysate centrifuged at 4° C., 20000 rpm, for 15 minutes. The HIGF-1R portion was absorbed to WGA-agarose beads and subjected to chromatography purification (Pharmacia biotech No 17-0760-01) (column washed with 20× column volumes wash buffer −50 mM Hepes (pH 8.0); 150 mM NaCl; 0.1% Triton X-100; 0.5 mM PEFABLOC (Roche)). The HIGF-1R portion was then eluted with 0.5 M n-Acetyl Glycosamine (NAG), 10% Glycerol in elution buffer (50 mM Hepes (pH 8.0); 150 mM NaCl; 0.1% Triton X-100; 0.5 mM PEFABLOC (Roche); 0.5 M n-acetyl glucosamine; 10% glycerol). […] After equilibration for 2 days at 4° C., each sample (200 μl) typically was precipitated by addition of 400 μl 25% PEG 6000, centrifuged, washed with 1 ml 15% PEG 6000, and counted in a gamma-counter. In some cases, human insulin receptor (HIR) affinity for select test peptides was similarly measured.

Assay [5] addresses T2, IGF-1R on L6 (with mainly symmetric IGF-1R) (Rattus norvegicus, UniProt P24062).
T2 construct: L6 cells predominantly expressing IGF-1R and very limited insulin receptors; endogenous in cells; host or cells: L6 cells
The assay can be described thus: displacement of IGF-1 binding on L6 cells.

Like-named read-outs stand apart in the source and are kept apart here. Where a SMILES comes first, the peptide text is derived from it.

MCF7 cells, sequence (P08069 31-736): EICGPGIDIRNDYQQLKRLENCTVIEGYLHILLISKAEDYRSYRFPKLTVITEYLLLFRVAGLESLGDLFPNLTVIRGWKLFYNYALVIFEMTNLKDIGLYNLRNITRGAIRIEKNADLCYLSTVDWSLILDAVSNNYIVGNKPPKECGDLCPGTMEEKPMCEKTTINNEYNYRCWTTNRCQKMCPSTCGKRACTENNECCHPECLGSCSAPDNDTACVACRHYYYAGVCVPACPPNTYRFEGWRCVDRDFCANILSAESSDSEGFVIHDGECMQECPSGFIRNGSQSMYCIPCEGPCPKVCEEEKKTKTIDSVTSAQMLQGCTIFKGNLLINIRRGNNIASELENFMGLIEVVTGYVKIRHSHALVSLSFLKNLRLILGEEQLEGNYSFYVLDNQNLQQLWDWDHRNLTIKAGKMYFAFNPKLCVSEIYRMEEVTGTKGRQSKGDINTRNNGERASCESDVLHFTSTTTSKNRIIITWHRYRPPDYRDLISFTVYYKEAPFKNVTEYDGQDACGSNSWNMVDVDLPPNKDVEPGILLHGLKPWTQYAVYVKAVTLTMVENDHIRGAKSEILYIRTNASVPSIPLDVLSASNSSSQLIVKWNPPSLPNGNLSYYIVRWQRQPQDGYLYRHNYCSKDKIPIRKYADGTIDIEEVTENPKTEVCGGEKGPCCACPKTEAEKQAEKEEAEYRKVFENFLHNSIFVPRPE
T1 sequence (P08069 31-736 limits assumed): as the sequence (P08069 31-736) above
T1 sequence (P08069 741-1367 limits assumed): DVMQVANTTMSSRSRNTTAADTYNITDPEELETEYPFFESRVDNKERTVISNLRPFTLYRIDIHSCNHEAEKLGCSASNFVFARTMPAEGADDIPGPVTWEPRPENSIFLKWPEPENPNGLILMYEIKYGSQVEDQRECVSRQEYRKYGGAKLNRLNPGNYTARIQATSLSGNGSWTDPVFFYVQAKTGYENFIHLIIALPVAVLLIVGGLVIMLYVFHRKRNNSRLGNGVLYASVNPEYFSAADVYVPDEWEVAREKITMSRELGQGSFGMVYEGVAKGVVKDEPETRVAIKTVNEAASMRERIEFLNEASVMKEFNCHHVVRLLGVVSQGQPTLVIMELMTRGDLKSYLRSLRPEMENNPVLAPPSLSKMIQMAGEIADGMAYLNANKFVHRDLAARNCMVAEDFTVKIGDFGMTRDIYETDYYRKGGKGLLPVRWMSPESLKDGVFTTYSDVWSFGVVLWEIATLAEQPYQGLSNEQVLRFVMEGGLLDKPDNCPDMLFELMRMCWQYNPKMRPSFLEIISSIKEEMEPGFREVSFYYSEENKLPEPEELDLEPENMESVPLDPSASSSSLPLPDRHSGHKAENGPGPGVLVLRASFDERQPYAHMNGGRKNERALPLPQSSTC
human insulin receptor (HIR), sequence (P06213 28-758 limits assumed): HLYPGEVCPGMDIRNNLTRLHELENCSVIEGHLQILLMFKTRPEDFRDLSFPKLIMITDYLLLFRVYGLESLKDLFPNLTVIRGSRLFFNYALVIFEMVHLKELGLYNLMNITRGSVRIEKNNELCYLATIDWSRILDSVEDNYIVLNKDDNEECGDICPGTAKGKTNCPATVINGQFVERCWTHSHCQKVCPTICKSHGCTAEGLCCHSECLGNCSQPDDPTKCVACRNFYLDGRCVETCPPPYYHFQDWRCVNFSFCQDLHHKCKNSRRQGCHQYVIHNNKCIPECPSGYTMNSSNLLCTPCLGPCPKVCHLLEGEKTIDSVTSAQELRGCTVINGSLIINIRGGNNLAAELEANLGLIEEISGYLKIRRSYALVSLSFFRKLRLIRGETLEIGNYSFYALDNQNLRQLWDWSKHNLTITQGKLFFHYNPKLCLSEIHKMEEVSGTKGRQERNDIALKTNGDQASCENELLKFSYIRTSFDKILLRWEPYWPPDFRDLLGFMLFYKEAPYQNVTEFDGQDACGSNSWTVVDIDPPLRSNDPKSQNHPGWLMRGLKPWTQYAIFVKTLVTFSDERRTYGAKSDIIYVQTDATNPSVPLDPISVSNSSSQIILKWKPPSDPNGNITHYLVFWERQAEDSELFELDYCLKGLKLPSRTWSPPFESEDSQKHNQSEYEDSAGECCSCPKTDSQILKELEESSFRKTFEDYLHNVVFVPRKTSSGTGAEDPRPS
human insulin receptor (HIR), sequence (P06213 763-1382 limits assumed): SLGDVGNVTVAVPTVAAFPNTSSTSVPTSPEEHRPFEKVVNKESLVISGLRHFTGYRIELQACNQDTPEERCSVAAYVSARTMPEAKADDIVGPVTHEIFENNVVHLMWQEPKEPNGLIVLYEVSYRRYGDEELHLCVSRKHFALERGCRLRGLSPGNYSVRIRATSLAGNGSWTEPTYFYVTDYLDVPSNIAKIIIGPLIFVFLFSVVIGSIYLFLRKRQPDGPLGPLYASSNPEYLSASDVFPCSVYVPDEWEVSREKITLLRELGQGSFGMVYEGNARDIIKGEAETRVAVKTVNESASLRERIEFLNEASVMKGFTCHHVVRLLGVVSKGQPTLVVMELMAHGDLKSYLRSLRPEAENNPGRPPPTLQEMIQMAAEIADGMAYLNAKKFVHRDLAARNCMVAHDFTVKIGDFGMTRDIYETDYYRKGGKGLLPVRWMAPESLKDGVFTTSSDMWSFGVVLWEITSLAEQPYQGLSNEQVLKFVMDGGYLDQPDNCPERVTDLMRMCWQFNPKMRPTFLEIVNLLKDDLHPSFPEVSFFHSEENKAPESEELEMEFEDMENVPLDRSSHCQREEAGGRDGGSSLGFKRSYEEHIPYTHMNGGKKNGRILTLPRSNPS
T2 sequence (P24062 31-737 limits assumed): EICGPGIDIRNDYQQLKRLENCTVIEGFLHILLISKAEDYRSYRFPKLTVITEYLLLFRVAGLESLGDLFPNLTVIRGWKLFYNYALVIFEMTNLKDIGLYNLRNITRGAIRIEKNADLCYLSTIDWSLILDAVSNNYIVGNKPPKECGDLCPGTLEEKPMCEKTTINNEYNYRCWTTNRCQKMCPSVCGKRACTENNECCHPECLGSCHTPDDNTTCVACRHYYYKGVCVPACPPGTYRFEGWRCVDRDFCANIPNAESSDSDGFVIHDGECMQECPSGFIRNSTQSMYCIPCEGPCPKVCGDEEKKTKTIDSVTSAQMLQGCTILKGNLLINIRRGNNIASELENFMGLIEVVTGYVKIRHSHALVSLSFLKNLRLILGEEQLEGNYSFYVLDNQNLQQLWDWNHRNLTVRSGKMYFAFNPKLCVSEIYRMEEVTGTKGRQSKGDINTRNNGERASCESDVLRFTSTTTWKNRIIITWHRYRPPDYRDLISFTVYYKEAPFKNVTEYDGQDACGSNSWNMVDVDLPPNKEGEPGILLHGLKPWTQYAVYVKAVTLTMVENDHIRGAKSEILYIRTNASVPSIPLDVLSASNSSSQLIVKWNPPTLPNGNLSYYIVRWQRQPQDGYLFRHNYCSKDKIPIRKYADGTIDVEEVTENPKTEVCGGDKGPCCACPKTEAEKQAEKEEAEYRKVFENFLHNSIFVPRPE
T2 sequence (P24062 742-1370 limits assumed): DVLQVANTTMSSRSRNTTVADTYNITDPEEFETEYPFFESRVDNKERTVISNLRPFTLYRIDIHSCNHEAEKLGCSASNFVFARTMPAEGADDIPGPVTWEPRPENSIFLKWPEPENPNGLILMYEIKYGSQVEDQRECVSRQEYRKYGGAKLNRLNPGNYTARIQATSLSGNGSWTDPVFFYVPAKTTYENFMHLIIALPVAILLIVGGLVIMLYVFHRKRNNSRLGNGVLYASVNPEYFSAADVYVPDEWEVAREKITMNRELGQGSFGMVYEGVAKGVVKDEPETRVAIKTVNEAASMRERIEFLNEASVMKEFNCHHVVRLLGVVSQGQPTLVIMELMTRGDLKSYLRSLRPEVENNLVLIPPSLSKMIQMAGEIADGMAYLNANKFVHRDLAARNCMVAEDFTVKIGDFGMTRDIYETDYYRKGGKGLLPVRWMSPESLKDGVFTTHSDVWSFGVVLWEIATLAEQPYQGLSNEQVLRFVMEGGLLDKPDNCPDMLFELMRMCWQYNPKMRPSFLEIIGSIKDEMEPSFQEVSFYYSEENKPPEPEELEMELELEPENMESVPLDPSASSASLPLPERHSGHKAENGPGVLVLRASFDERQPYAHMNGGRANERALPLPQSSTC

In the case of `CC(C)C[C@H](NC(=O)[C@H](CCC(=O)O)NC(=O)[C@H](CCC(=O)O)NC(=O)[C@H](CS)NC(=O)[C@H](CO)NC(=O)[C@H](Cc1ccc(O)cc1)NC(=O)[C@H](Cc1ccccc1)NC(=O)[C@@H](N)CO)C(=O)N[C@H](C(=O)N[C@@H](CCC(N)=O)C(=O)NCC(=O)N1CCC[C@H]1C(=O)N[C@@H](C)C(=O)N[C@@H](CCC(=O)O)C(=O)N[C@@H](CCCCN)C(=O)N[C@@H](CO)C(=O)N[C@@H](CCCCN)C(=O)NCC(=O)N[C@@H](CCC(N)=O)C(=O)N[C@@H](Cc1c[nH]c2ccccc12)C(=O)N[C@@H](CCC(=O)O)C(=O)NCC(=O)N[C@@H](CS)C(=O)N[C@@H](CCCCN)C(=O)N[C@@H](CCCCN)C(=O)O)C(C)C` [Peptide F370] (H-SFYSCEELVQGPAEKSKGQWEGCKK-OH), the Kd at HIGF-1R came to 23000 nM.
For “DFYGCLLDLSLGVPSLGWRRRCITA [Peptide F429]”, the IC50 is 50 nM with IGF-IR; 100 nM in the assay on PKB/Akt; 100 nM in the assay on MAPK44; 500 nM with SW480 cells (experiment 13717-019); 1000 nM in the assay on SW480 cells (experiment 13717-027); 300 nM with MAPK42. Also, in the assay on IRS-1, the IC50 was 40 nM. Besides, the “complete remission, animals” value in the assay on MiaPaCa cells [1] ([…] (50 ug/injection)) is on record as “one”; in the assay on MiaPaCa cells [1] (group printed as 15 mg/kg, subcutaneous 4 times per week for 3 weeks) it was “one”. Further, the “animals responding to treatment” value in the assay with MiaPaCa cells [1] ([…] (50 ug/injection), subcutaneous 4 times per week for 3 weeks) was “Two out of five”. In addition, the tumor growth result in the assay on MiaPaCa cells [1] (group printed as 15 mg/kg (design: 300 ug/injection, 12 mg/kg), subcutaneous 4 times per week for 3 weeks) is “significant inhibition of growth”. Further, on MCF7 cells, the Activity entry was “Antagonist”. Moreover, the “changes in apoptosis gene expression” value with MiaPaCa cells [2] is recorded as “modulate apoptosis genes”. Moreover, in the assay on IRS-1 (+/−3 nM IGF-1, FIG. 7 and FIG. 8), the “potency for inhibiting down stream signaling through IRS-1 upon IGF-1 stimulation” value is on record as “potency of F429 is higher than F138”.
For “QFYGCLLDLSLGVPSFGWRRRCITA [Peptide F138]”, the “inhibition of IGF-1 induced versus insulin induced phosphorylation” value in the assay with insulin receptor/IGF-1R is “Some selectivity for inhibiting IGF-1 induced tyrosine phosphorylation as compared to insulin induced phosphorylation”. Moreover, in assay [3] (SGBS adipocytes, FIGS. 1A and 1B), the “effect on glucose uptake induced by insulin or IGF-1” value is “neither peptide F138 nor peptide F293 has any substantial effect on glucose uptake induced by insulin or IGF-1”. For the same compound, the “doses not affecting glucose uptake in response to insulin/IGF-1” value in [3] (SGBS cells) was less than 5 µM. The “HIR affinity, value in brackets” value in assay [4] is listed as “(0.013%)”. For the same compound, the “concentration displacing IGF-1 binding to IGF-1R on L6” value in [5] is 100 nM. The “IC50 in SW480 (M) in presence of IGF-1/alone: in presence of IGF-1” value in the assay with SW480 cells (first value of the cell: concentration needed to blunt the effect of 10 nM IGF-1, cells in words only = effect as reported, 48 hours) is “Antagonistic”. The “inhibition of basal growth of SW480, doses” value with SW480 cells (without IGF-1) was greater than 100 nM. Also, the IC50 with MAPK42 and in the assay with IRS-1 was 300 nM throughout.
